# Molecular target: T1, rat mGluR5 receptors (Rattus norvegicus, UniProt P31424)
# T1 construct: rat cerebro-cortical membrane preparation was used; from tissue; host or cells: rat cerebral cortex membranes
# Test: mGluR5 receptor binding test, rat cerebro-cortical membrane preparation, [3H]-M-MPEP
# Settings: affinity for rat mGluR5 receptors; [3H]-M-MPEP (2 nM) radioligand
# Method: The mGluR5 receptor binding was determined according to the modified method of Gasparini et. al. (Bioorg. Med. Chem. Lett., 2000, 12, 407). Based on the high homology between the human and rat mGluR5 receptors, rat cerebro-cortical membrane preparation was used to determine the binding characteristics of the reference compounds and novel compounds to the rat mGluR5. The A18 cell line expressing hmGluR5a (purchased from Euroscreen) was used to determine binding characteristics of the chemical compounds to the human mGluR5a receptor. [^3H]-M-MPEP (2 nM) was used as radioligand. The nonspecific binding was determined in the presence of 10 μM M-MPEP.
# T1 sequence (P31424 21-1203): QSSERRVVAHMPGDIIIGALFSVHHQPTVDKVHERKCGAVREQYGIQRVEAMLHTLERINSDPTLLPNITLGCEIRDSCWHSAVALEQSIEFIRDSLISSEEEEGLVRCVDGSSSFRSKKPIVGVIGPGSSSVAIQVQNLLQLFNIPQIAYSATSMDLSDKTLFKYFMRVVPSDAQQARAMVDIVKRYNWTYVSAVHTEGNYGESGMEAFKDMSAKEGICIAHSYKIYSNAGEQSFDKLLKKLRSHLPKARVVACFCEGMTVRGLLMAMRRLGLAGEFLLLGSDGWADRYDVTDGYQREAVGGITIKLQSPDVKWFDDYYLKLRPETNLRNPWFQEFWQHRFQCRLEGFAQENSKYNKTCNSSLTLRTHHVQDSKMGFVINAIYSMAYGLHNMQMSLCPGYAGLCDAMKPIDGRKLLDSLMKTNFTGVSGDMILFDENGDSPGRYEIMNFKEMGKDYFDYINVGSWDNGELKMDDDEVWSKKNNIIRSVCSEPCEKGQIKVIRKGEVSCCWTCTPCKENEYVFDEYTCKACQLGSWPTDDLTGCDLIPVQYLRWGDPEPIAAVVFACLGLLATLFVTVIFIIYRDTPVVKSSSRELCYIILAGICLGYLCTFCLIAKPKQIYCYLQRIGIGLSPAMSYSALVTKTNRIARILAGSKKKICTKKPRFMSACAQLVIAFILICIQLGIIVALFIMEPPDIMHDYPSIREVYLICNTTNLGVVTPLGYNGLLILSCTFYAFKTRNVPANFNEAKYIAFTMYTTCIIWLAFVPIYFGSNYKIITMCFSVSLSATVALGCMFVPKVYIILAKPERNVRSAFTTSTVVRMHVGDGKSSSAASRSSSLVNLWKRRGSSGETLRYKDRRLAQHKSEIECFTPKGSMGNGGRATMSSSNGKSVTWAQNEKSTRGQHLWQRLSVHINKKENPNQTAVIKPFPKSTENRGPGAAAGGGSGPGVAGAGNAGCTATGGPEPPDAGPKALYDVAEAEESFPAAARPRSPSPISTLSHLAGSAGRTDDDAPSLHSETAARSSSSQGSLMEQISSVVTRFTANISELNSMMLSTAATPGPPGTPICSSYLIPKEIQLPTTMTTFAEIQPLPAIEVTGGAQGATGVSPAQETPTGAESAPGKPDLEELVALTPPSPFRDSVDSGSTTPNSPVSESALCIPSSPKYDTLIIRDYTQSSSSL
row,SMILES,Ki
1,"Cc1ccc(S(=O)(=O)c2cnc3ccccc3c2N2CCOCC2)cc1C [Compound 1, 3-(3,4-Dimethyl-benzenesulfonyl)-4-(morpholin-4-yl)-quinoline]",< 200 nM
2,"Cc1ccc(S(=O)(=O)c2cnc3ccccc3c2N2CCC(C)CC2)cc1 [Compound 2, 3-(4-Methyl-benzenesulfonyl)-4-(4-methyl-piperidin-1-yl)-quinoline]",< 200 nM
3,"Cc1ccc(S(=O)(=O)c2cnc3ccccc3c2N2CCC(C)CC2)cc1C [Compound 3, 3-(3,4-Dimethyl-benzenesulfonyl)-4-(4-methyl-piperidin-1-yl)-quinoline]",< 200 nM
4,"Cc1ccc(S(=O)(=O)c2cnc3ccccc3c2N2CCCC(C)C2)cc1 (stereo not drawn) [Compound 4, 3-(4-Methyl-benzenesulfonyl)-4-(3-methyl-piperidin-1-yl)-quinoline]",< 200 nM
5,O=S(=O)(c1ccccc1)c1cnc2ccccc2c1N1CCCCC1 [Compound 5],200 to 500 nM
6,Cc1ccc(S(=O)(=O)c2cnc3ccccc3c2N2CCCCC2)cc1 [Compound 6],< 200 nM
7,COc1cc2ncc(S(=O)(=O)c3ccccc3)c(N3CCOCC3)c2cc1OC [Compound 7],> 500 nM
8,O=S(=O)(c1ccc(N2CCCCC2)cc1)c1cnc2ccc(Cl)cc2c1N1CCCCC1 [Compound 8],> 500 nM
9,CCN(CC)c1c(S(=O)(=O)c2ccc(Cl)cc2)cnc2ccc(C)cc12 [Compound 9],< 200 nM
10,CCN1CCN(c2c(S(=O)(=O)c3ccc(F)cc3)cnc3ccc(Cl)cc23)CC1 [Compound 10],> 500 nM
11,COc1ccc(S(=O)(=O)c2cnc3ccc(Cl)cc3c2NCc2ccccc2)cc1 [Compound 11],> 500 nM
12,CCc1ccc2ncc(S(=O)(=O)c3ccc(OC)cc3)c(N(CC)CC)c2c1 [Compound 12],> 500 nM
13,O=S(=O)(c1ccccc1)c1cnc2ccc(F)cc2c1N1CCN(Cc2ccccc2)CC1 [Compound 13],> 500 nM
14,Cc1ccc(S(=O)(=O)c2cnc3ccc(F)cc3c2N2CCC(C)CC2)cc1 [Compound 14],200 to 500 nM
15,COc1ccc2ncc(S(=O)(=O)c3ccc(Cl)cc3)c(N3CCC(C)CC3)c2c1 [Compound 15],> 500 nM
16,CCOc1ccc2ncc(S(=O)(=O)c3ccc(Cl)cc3)c(NCc3ccc(F)cc3)c2c1 [Compound 16],< 200 nM
17,CCN(CC)c1c(S(=O)(=O)c2ccc(Cl)cc2)cnc2cc3c(cc12)OCCO3 [Compound 18],> 500 nM
18,CCN1CCN(c2c(S(=O)(=O)c3ccc(C)c(C)c3)cnc3cc4c(cc23)OCO4)CC1 [Compound 19],> 500 nM
19,O=S(=O)(c1ccccc1)c1cnc2ccccc2c1Nc1ccccc1 [Compound 20],> 500 nM
20,Cc1ccc(Nc2c(S(=O)(=O)c3ccc(C)cc3)cnc3ccccc23)cc1 [Compound 21],> 500 nM
21,Cc1ccc(Nc2c(S(=O)(=O)c3ccc(Cl)cc3)cnc3ccccc23)cc1C [Compound 22],> 500 nM
22,COc1cccc(Nc2c(S(=O)(=O)c3ccccc3)cnc3ccc(OC)cc23)c1 [Compound 23],> 500 nM
23,COc1ccc(Nc2c(S(=O)(=O)c3ccc(C)cc3)cnc3ccccc23)cc1OC [Compound 24],> 500 nM
24,Cc1ccc(S(=O)(=O)c2cnc3ccccc3c2Nc2ccc(F)cc2)cc1 [Compound 25],> 500 nM
25,Cc1ccc(S(=O)(=O)c2cnc3ccc(C)cc3c2Nc2ccc(Cl)cc2)cc1 [Compound 26],> 500 nM
26,Cc1ccc(S(=O)(=O)c2cnc3ccccc3c2Nc2ccc3c(c2)OCCO3)cc1 [Compound 27],> 500 nM

row,SMILES,Ki
1,Cc1ccc(S(=O)(=O)c2cnc3ccc(C)cc3c2NCc2ccccc2)cc1 [Compound 28],> 500 nM
2,Cc1ccc(S(=O)(=O)c2cnc3ccc(C)cc3c2NCc2ccc(F)cc2)cc1 [Compound 29],> 500 nM
3,CCc1ccc2ncc(S(=O)(=O)c3ccc(Cl)cc3)c(NCc3ccc(C)cc3)c2c1 [Compound 30],> 500 nM
4,COc1ccc(CNc2c(S(=O)(=O)c3ccc(Cl)cc3)cnc3ccccc23)cc1 [Compound 31],> 500 nM
5,Cc1ccc(S(=O)(=O)c2cnc3ccccc3c2N2CCCCCC2)cc1 [Compound 32],< 200 nM
6,Cc1ccc(S(=O)(=O)c2cnc3ccc(F)cc3c2N2CCCCCC2)cc1 [Compound 33],> 500 nM
7,O=S(=O)(c1ccc(Cl)cc1)c1cnc2ccccc2c1N1CCCCCC1 [Compound 34],200 to 500 nM
8,CCc1ccc2ncc(S(=O)(=O)c3ccccc3)c(N3CCCC3)c2c1 [Compound 35],> 500 nM
9,CCOc1ccc2ncc(S(=O)(=O)c3ccccc3)c(N3CCCC3)c2c1 [Compound 36],> 500 nM
10,O=S(=O)(c1ccccc1)c1cnc2ccc(Cl)cc2c1N1CCCC1 [Compound 37],> 500 nM
11,Cc1ccc(S(=O)(=O)c2cnc3ccc(Cl)cc3c2N2CCOCC2)cc1C [Compound 38],> 500 nM
12,Cc1ccc2ncc(S(=O)(=O)c3ccc(Cl)cc3)c(N3CCOCC3)c2c1 [Compound 39],> 500 nM
13,O=S(=O)(c1ccc(Cl)cc1)c1cnc2ccccc2c1N1CCOCC1 [Compound 40],> 500 nM
14,Cc1ccc(S(=O)(=O)c2cnc3ccc(C)cc3c2N2CCCCC2)cc1 [Compound 41],> 500 nM
15,Cc1ccc(S(=O)(=O)c2cnc3cc4c(cc3c2N2CCCCC2)OCCO4)cc1 [Compound 42],> 500 nM
16,O=S(=O)(c1ccc(Cl)cc1)c1cnc2ccccc2c1N1CCCCC1 [Compound 43],> 500 nM
17,COc1ccc(S(=O)(=O)c2cnc3ccc(OC)cc3c2N2CCCCC2)cc1 [Compound 44],> 500 nM
18,CCc1ccc2ncc(S(=O)(=O)c3ccccc3)c(N3CCCCC3)c2c1 [Compound 45],> 500 nM
19,Cc1ccc(S(=O)(=O)c2cnc3ccc(C)cc3c2N2CCC(C)CC2)cc1 [Compound 46],< 200 nM
20,CC1CCN(c2c(S(=O)(=O)c3ccccc3)cnc3ccccc23)CC1 [Compound 47],< 200 nM
21,CC1CCN(c2c(S(=O)(=O)c3ccccc3)cnc3cc4c(cc23)OCCO4)CC1 [Compound 48],< 200 nM
22,Cc1ccc2ncc(S(=O)(=O)c3ccccc3)c(N3CCC(C)CC3)c2c1 [Compound 49],> 500 nM
23,COc1ccc2ncc(S(=O)(=O)c3ccc(C)cc3)c(N3CCC(C)CC3)c2c1 [Compound 50],> 500 nM
24,CCc1ccc2ncc(S(=O)(=O)c3ccc(OC)cc3)c(N3CCC(C)CC3)c2c1 [Compound 51],< 200 nM
25,CCOC(=O)C1CCN(c2c(S(=O)(=O)c3ccc(C)cc3)cnc3ccc(CC)cc23)CC1 [Compound 52],> 500 nM
26,CCOC(=O)C1CCN(c2c(S(=O)(=O)c3ccc(Cl)cc3)cnc3ccc(CC)cc23)CC1 [Compound 53],< 200 nM

row,SMILES,Ki
1,CCOC(=O)C1CCN(c2c(S(=O)(=O)c3ccc(C)cc3)cnc3ccccc23)CC1 [Compound 54],> 500 nM
2,CCOC(=O)C1CCN(c2c(S(=O)(=O)c3ccc(C)cc3)cnc3ccc(F)cc23)CC1 [Compound 55],> 500 nM
3,CCOC(=O)C1CCCN(c2c(S(=O)(=O)c3ccc(C)cc3)cnc3ccccc23)C1 (stereo not drawn) [Compound 56],> 500 nM
4,CCOC(=O)C1CCCN(c2c(S(=O)(=O)c3ccccc3)cnc3ccc(CC)cc23)C1 (stereo not drawn) [Compound 57],> 500 nM
5,CCOC(=O)C1CCCN(c2c(S(=O)(=O)c3ccc(C)cc3)cnc3ccc(OC)cc23)C1 (stereo not drawn) [Compound 58],> 500 nM
6,Cc1ccc(S(=O)(=O)c2cnc3ccc(C)cc3c2N2CCC(C(N)=O)CC2)cc1 [Compound 59],> 500 nM
7,O=S(=O)(c1ccccc1)c1cnc2ccccc2c1N1CCC2(CC1)OCCO2 [Compound 60],> 500 nM
8,CN1CCN(c2c(S(=O)(=O)c3ccc(Cl)cc3)cnc3ccccc23)CC1 [Compound 61],> 500 nM
9,CCN1CCN(c2c(S(=O)(=O)c3ccc(Cl)cc3)cnc3ccc(C)cc23)CC1 [Compound 62],> 500 nM
10,CCc1ccc2ncc(S(=O)(=O)c3ccccc3)c(N3CCN(CC)CC3)c2c1 [Compound 63],> 500 nM
11,O=S(=O)(c1ccccc1)c1cnc2ccccc2c1N1CCN(Cc2ccccc2)CC1 [Compound 64],> 500 nM
12,Cc1ccc(S(=O)(=O)c2cnc3ccc(C)cc3c2N2CCN(Cc3ccccc3)CC2)cc1 [Compound 65],> 500 nM
13,CCc1ccc2ncc(S(=O)(=O)c3ccccc3)c(N3CCN(Cc4ccccc4)CC3)c2c1 [Compound 66],> 500 nM
14,Cc1ccc(S(=O)(=O)c2cnc3ccc(F)cc3c2N2CCN(c3ccccc3)CC2)cc1 [Compound 67],> 500 nM
15,Cc1ccc(N2CCN(c3c(S(=O)(=O)c4ccccc4)cnc4ccc(F)cc34)CC2)c(C)c1 [Compound 68],> 500 nM
16,COc1ccc2ncc(S(=O)(=O)c3ccccc3)c(N3CCN(c4cccc(C)c4C)CC3)c2c1 [Compound 69],> 500 nM
17,Cc1ccc(S(=O)(=O)c2cnc3ccccc3c2N2CCN(c3cc(C)ccc3C)CC2)cc1 [Compound 70],> 500 nM
18,O=S(=O)(c1ccccc1)c1cnc2ccccc2c1N1CCN(c2cccc(Cl)c2)CC1 [Compound 71],> 500 nM
19,O=S(=O)(c1ccc(Cl)cc1)c1cnc2ccccc2c1N1CCN(c2ccc(F)cc2)CC1 [Compound 72],> 500 nM
20,Cc1ccc(S(=O)(=O)c2cnc3ccc(C)cc3c2N2CCN(c3ccccc3F)CC2)cc1 [Compound 73],> 500 nM
21,COc1ccccc1N1CCN(c2c(S(=O)(=O)c3ccc(C)cc3)cnc3ccccc23)CC1 [Compound 74],> 500 nM
22,COc1ccc(N2CCN(c3c(S(=O)(=O)c4ccc(Cl)cc4)cnc4ccc(C)cc34)CC2)cc1 [Compound 75],> 500 nM
23,CCN(CC)c1c(S(=O)(=O)c2ccc(C)cc2)cnc2ccccc12 [Compound 76],200 to 500 nM
24,Cc1ccc(S(=O)(=O)c2cnc3ccccc3c2NCc2ccccc2)cc1 [Compound 77],< 200 nM
25,COc1ccc2ncc(S(=O)(=O)c3ccc(Cl)cc3)c(NCc3ccccc3)c2c1 [Compound 78],> 500 nM
26,O=S(=O)(c1ccc(Cl)cc1)c1cnc2ccccc2c1N1CCN(Cc2ccccc2)CC1 [Compound 79],200 to 500 nM

# From US20090270371A1, “QUINOLINE DERIVATIVES USEFUL IN THE TREATMENT OF MGLUR5 RECEPTOR-MEDIATED DISORDERS” (priority 2005, published 2009)
